# Measurements as given in patent US20180110777A1, “METHOD FOR REGULATION OF TELOMERE LENGTH” (The Johns Hopkins University, priority 2015, published 2018).
# How the values were obtained:
# [1] = test system: SL13 cells; assay: ADDIT assay (addition of de novo initiated telomeres; modified STELA with PacBio sequencing or Southern blot); format: cell-based, mouse
# Text: To critically access the role of ATM, as well as other potential telomere length regulators, an assay was developed that measures telomere repeat addition in cells over 48 hr. CAST/EiJ mouse fibroblast cell line was engineered to (SL13) contain a conditional mTR allele and a modified chromosome 4 (chr4) with an internal 480 bp telomere ‘seed’ sequence followed by a unique I-Sce1 endonuclease cut site (FIG. 5 and see Experimental Procedures). The internal telomere ‘seed’ sequence can be conditionally exposed by I-Sce1 endonuclease cleavage (FIG. 1A) and then be elongated by telomerase in a manner similar to de novo telomere addition shown to occur in yeast (Diede and Gottschling, 1999, Cell 99, 723-733).
# To better detect the telomere elongation, the single telomere length analysis (STELA) assay was modified (Baird et al., 2004, Hum Mol Genet 13, 1515-1524), to measure telomere length at the in vivo cut chr4. The linker, ‘telorette’, was ligated to the telomere and PCR amplified the telomere using the ‘teltail’ primer and an internal primer in the hygromycin resistance (HYG) sequence on the engineered chromosome (FIG. 1B). To determine the un-extended cut chromosome length in vitro, a different linker was designed, ‘IScerette’, which anneals to the 4-nt 3′ overhang created by the I-Sce1 endonuclease (FIG. 1B). PCR using the forward primers, F1 or F2, and the teltail generated products of predicted size on a Southern blot (data not shown).
# To further verify telomere addition had occurred, the PCR products were sequenced with Pacific Biosciences (PacBio®) sequencing. PacBio® produces long sequence reads that allowed us to determine telomere length. While sequencing errors, predominantly point insertions and deletions, occurred as expected, the telomere repeats were easily recognizable. To assure products were full length, the PacBio® reads were filtered to examine only those that had the unique HYG sequence followed by the seed telomere repeat sequence and also had the ‘teltail’ primer sequence (FIG. 6). […] The I-Sce1 site is shown boxed (FIG. 1C). Three regions of variant telomere repeats were noted, evident as darker stripes in the aligned reads, that were present in the original SL13 clone, and served as useful sequence reference points (FIG. 1C). If there were degradation past these variants and then new TTAGGG (SEQ ID NO: 100) repeat synthesis in vivo, these landmarks would be removed.
# The sequence length distribution in the ADDIT assay represents telomere elongation, incomplete telomere replication and in vivo end resection (as well as PacBio® sequencing errors).
# Cell lines were grown in DMEM (Gibco) supplemented with 1% Penicillin/Streptomycin/Glutamine (PSG) and 10% heat inactivated FBS (Invitrogen). SL13 cells were grown in DMEM (Gibco) supplemented with 1% PSG and 10% Tet system approved FBS (Clontech, #631107). Cells were treated with ATM inhibitor KU55933 (R&D Systems, #3544), ATR inhibitor VE821 (Selleckchem, #S8007) or PARP1 inhibitor Olaparib (Selleckchem, #1060) at indicated concentrations or DMSO as a control. For the ADDIT assay, SL13 cells were treated with final concentration 2 μg/ml of doxycycline for typically 48 hr or as indicated.
# The original STELA protocol used for human cells (Baird et al., 2004, Hum Mol Genet 13, 1515-1524) was modified to measure telomere lengths on the cut end of chr4 in SL13 cells. Briefly, genomic DNA was extracted using Puregene Core Kit A™ (Qiagen). 4 μg of genomic DNA was digested with Sph1 (NEB) and later diluted to 10 ng/μl in water. For the in vitro IScerette sample, genomic DNA was digested with SphI and I-SceI (NEB) prior to ligation. The ligation was carried out at 35° C. for at least 12 hr in a volume of 10 μl containing 10 ng of digested genomic DNA, 0.9 μM of telorette linkers or IScerette linker and 0.5 U of T4 DNA ligase (NEB) in 1×T4 ligation buffer. […]
# [2] = test system: SL13 cells; assay: Telomere Southern blot after lentiviral overexpression of mTR and mTERT; format: cell-based, mouse; details: SL13 cells transduced with lentivirus expressing mTR and mTERT; day 6
structure (smiles),measurement,setting,value
CN1CC[C@H](c2c(O)cc(O)c3c(=O)cc(-c4ccccc4Cl)oc23)[C@H](O)C1 [flavopiridol],percentage of reads with de novo telomere addition,"[1]; 400 nM flavopiridol, 48 hrs, DMSO control 24%",less than 2%
same,elongation in Southern blot analysis of STELA PCR products,[1]; flavopiridol-treated sample,minimal elongation beyond the chr4 I-Sce1-induced cut base line
CS(=O)(=O)c1ccc(-c2cnc(N)c(C(=O)Nc3ccccc3)n2)cc1 [VE821],telomere elongation on overexpression of telomerase (Southern blot),[2],subtle but reproducible decreased elongation at day 6
CN[C@H]1CCc2cc(OC)c(OC)c(OC)c2-c2ccc(OC)c(=O)cc21 [colcemid],de novo telomere addition / telomere elongation in ADDIT assay (in words),"[1]; PacBio sequencing of STELA products, compared to controls",No significant difference of de novo elongation
